Values of other authors as cited in patent EP1269978A2, “Use of bis-resorcinyltriazine derivatives in cosmetic or dermatological preparations” (Beiersdorf AG, priority 2001, dated 2003).

Conditions: n-Octanol / Wasser

- log P-Wert: ~7
SMILES: CC1=C(/C=C/C(C)=C/C=C/C(C)=C/CO)C(C)(C)CCC1 [Retinol]
